According to article PMC6152134, “Synthesis and In Vitro Anticancer Activity of Novel Dehydroabietic Acid-Based Acylhydrazones” (Molecules : A Journal of Synthetic Chemistry and Natural …, 2017):

How the values were obtained:
[1] = tested on: CNE-2 (nasopharynx) human carcinoma cell line; test: MTT cytotoxicity assay, CNE-2 cells; assay type: cell-based; conditions: 48 h exposure
Protocol: (§1) Compounds 4a–x were evaluated for their cytotoxic activity in vitro against the human cancer cell lines, CNE-2, HepG2, HeLa, and BEL-7402 by using a 3-(4,5-dimethylthiazol-2-yl)-2,5-diphenyl tetrazolium bromide (MTT) colorimetric assay. Cisplatin was included in the experiments as a positive control, and the IC50 of DHA is also presented to compare the anticancer activities. The calculated IC50 values were reported differently according to the different cancer cells.
(§2) The CNE-2, HepG2, HeLa, and BEL-7402 cell lines used in this work were all purchased from the Institute of Biochemistry and Cell Biology, China Academy of Sciences. All were supplemented with 10% heat-inactivated fetal bovine serum in a humidified atmosphere of 5% CO2/95% air at 37 °C. In order to investigate the potential of compounds 4, cisplatin, a commercial classical anticancer drug was used as a reference drug. CNE-2, HepG2, HeLa, and BEL-7402 cells were seeded into 96-well microculture plates and allowed to adhere for 24 h, respectively. After cells were exposed to compounds at concentrations from 100 to 0.1 μM for 48 h, medium was aspirated and replenished with complete medium. IC50 values was evaluated by MTT tetrazolium dye assay. All the tests were repeated in at least three independent experiments. The IC50 values of the compounds were calculated using SPSS Version 10 software (IBM, New York, NY, USA), which defined the IC50 value as the concentration required to inhibit cell growth by 50%.

[2] = tested on: HepG2 (liver) human carcinoma cell line; test: MTT cytotoxicity assay, HepG2 cells; assay type: cell-based; conditions: 48 h exposure
Protocol: as §1, §2

[3] = tested on: HeLa (epithelial cervical) human carcinoma cell line; test: MTT cytotoxicity assay, HeLa cells; assay type: cell-based; conditions: 48 h exposure
Protocol: as §1, §2

[4] = tested on: BEL-7402 (liver) human carcinoma cell line; test: MTT cytotoxicity assay, BEL-7402 cells; assay type: cell-based; conditions: 48 h exposure
Protocol: as §1, §2

[5] = tested on: HL-7702 normal human liver cell line; test: MTT cytotoxicity assay, HL-7702 normal liver cells; assay type: cell-based
[6] = tested on: human promyelocytic leukemic cells (HL-60); parameters: method as in PMID 20884091; conditions: read-out: IC50 against HL-60; cited from earlier work
[7] = L02, normal human liver cell HL-7702

Row | SMILES | melting point | IC50 ([1]; Homo sapiens) | IC50 ([2]; Homo sapiens, HepG2, 48 h) | IC50 ([3]; Homo sapiens, HeLa, 48 h) | IC50 ([4]; Homo sapiens) | IC50 [5, 7] | IC50 [6] | IC50 [2] | IC50 [3] | IC50 [1] | IC50 [4] | IC50 ([5]; normal human liver cell HL-7702)
1 | Cc1ccc(C=NNC(=O)COC(=O)C2(C)CCCC3(C)c4ccc(C(C)C)cc4CCC23)cc1 (centres unmarked) [4b] | 170 to 172.1 °C | 17.2 ± 0.21 µM | 12.4 ± 0.31 µM | 6.72 ± 0.22 µM | 15.38 ± 0.08 µM | 68.6 ± 2.14 µM |  |  |  |  |  | 
2 | COc1cccc2c1C(=O)c1c(O)c3c(c(O)c1C2=O)C[C@@](O)(C(=O)CO)C[C@@H]3O[C@H]1C[C@H](N)[C@H](O)[C@H](C)O1 [doxorubicin] |  |  |  |  |  |  | 53.3 µM |  |  |  |  | 
3 | CC(C)c1ccc2c(c1)CCC1C(C)(C(=O)OCC(=O)NN=Cc3ccccc3Br)CCCC21C (centres unmarked) [4k, N’-(2-Bromobenzylidene)-2-(dehydroabietyloxy)acetohydrazide] | 184.9 to 185.7 °C | 47.7 ± 0.23 µM | < 10 µM | < 10 µM | 48.16 ± 0.32 µM | 65.9 ± 1.48 µM |  | 8.47 ± 0.55 µM | 5.53 ± 0.04 µM |  |  | 
4 | CC(C)c1ccc2c(c1)CCC1C(C)(C(=O)OCC(=O)NN=Cc3cccc([N+](=O)[O-])c3)CCCC21C (centres unmarked) [4i] | 99.6 to 101.9 °C | 12.6 ± 0.24 µM | 57.8 ± 0.75 µM | 13.9 ± 0.41 µM | 44.65 ± 0.21 µM | 77.1 ± 0.96 µM |  |  |  |  |  | 
5 | CC(C)c1ccc2c(c1)CCC1C(C)(C(=O)OCC(=O)NN=Cc3ccc(N(C)C)cc3)CCCC21C (centres unmarked) [4e] | 163.4 to 164.7 °C | 48.85 ± 0.05 µM | 7.62 ± 0.32 µM | 34.92 ± 0.16 µM | 15.6 ± 0.44 µM | 63 ± 3.06 µM |  |  |  |  |  | 
6 | CC(C)c1ccc2c(c1)CC[C@H]1[C@](C)(C(=O)O)CCC[C@]21C [DHA, dehydroabietic acid] |  | 88.64 ± 0.73 µM | 80.4 ± 0.84 µM | 37.4 ± 0.64 µM | 46.7 ± 0.55 µM | > 100 µM |  |  |  |  |  | 
7 | CC(C)c1ccc2c(c1)CCC1C(C)(C(=O)OCC(=O)NN=Cc3ccco3)CCCC21C (centres unmarked) [4f] | 125.7 to 126.4 °C | 51.39 ± 0.34 µM | 25.6 ± 0.35 µM | 33.23 ± 0.21 µM | 16.9 ± 0.41 µM | 61.9 ± 1.34 µM |  |  |  |  |  | 
8 | CC(C)c1ccc2c(c1)CCC1C(C)(C(=O)OCC(=O)NN=Cc3ccccc3O)CCCC21C (centres unmarked) [4g] | 214.9 to 215.6 °C | 60.4 ± 1.02 µM | 12.5 ± 0.46 µM | 27.3 ± 0.5 µM | 36.4 ± 0.74 µM | > 100 µM |  |  |  |  |  | 
9 | N.N.[Cl][Pt][Cl] [Cisplatin, cisplatin, reference compound] |  |  |  |  |  |  |  | 6.42 ± 0.18 µM | 1.94 ± 0.2 µM | 8.75 ± 0.24 µM | 12.7 ± 0.33 µM | 20.8 ± 0.83 µM
10 | O=C(N/N=C/c1ccccc1O)c1ccc(-c2ccc(F)cc2F)o1 [(E)-2-hydroxybenzaldehyde-5-(2,4-difluorophenyl)-2-furoyl hydrazone] |  |  |  |  |  |  | 16.4 µM |  |  |  |  | 
11 | CC(C)c1ccc2c(c1)CCC1C(C)(C(=O)OCC(=O)NN=Cc3ccc([N+](=O)[O-])cc3)CCCC21C (centres unmarked) [4j] | 177.2 to 179.8 °C | 93.26 ± 0.52 µM | 39.5 ± 0.82 µM | 13.06 ± 0.08 µM | 27.45 ± 0.17 µM | > 100 µM |  |  |  |  |  | 
12 | COc1cc(C=NNC(=O)COC(=O)C2(C)CCCC3(C)c4ccc(C(C)C)cc4CCC23)ccc1O (centres unmarked) [4d] | 117.6 to 119 °C | 38.7 ± 0.49 µM | 35.26 ± 0.11 µM | 12.22 ± 0.08 µM | 33.6 ± 0.38 µM | 50.7 ± 1.82 µM |  |  |  |  |  | 
13 | CC(C)c1ccc2c(c1)CCC1C(C)(C(=O)OCC(=O)NN=C/C=C/c3ccccc3)CCCC21C (centres unmarked) [4c, N’-(3-Phenylallylidene)-2-(dehydroabietyloxy)acetohydrazide] | 185.7 to 187.3 °C | 15.8 ± 0.56 µM | 27.6 ± 0.23 µM | 10.8 ± 0.43 µM | 21.03 ± 0.09 µM | 53.2 ± 1.36 µM |  |  |  |  |  | 
14 | CC(C)c1ccc2c(c1)CCC1C(C)(C(=O)OCC(=O)NN=Cc3ccccc3)CCCC21C (centres unmarked) [4a] | 155.1 to 156.7 °C | 28.2 ± 0.43 µM | 27.8 ± 0.58 µM | 17.89 ± 0.13 µM | 36.7 ± 0.34 µM | > 100 µM |  |  |  |  |  | 
15 | CC(C)c1ccc2c(c1)CCC1C(C)(C(=O)OCC(=O)NN=Cc3ccccc3[N+](=O)[O-])CCCC21C (centres unmarked) [4h] | 94.9 to 96.7 °C | 98.78 ± 0.45 µM | 44.6 ± 0.92 µM | 15.2 ± 0.29 µM | 38.5 ± 0.52 µM | > 100 µM |  |  |  |  |  | 

More lines, main results first:

Row | melting point | SMILES | IC50 ([1]; Homo sapiens) | IC50 ([2]; Homo sapiens, HepG2, 48 h) | IC50 ([3]; Homo sapiens, HeLa, 48 h) | IC50 ([4]; Homo sapiens) | IC50 [5, 7] | IC50 [6] | IC50 [2] | IC50 [3] | IC50 [1] | IC50 [4] | IC50 ([5]; normal human liver cell HL-7702)
16 | 130.2 to 130.5 °C | CC(C)c1ccc2c(c1)CCC1C(C)(C(=O)OCC(=O)NN=Cc3ccccc3F)CCCC21C (centres unmarked) [4q, Dehydroabietic acid-based 2-fluorophenyl acylhydrazone] | 27.4 ± 0.72 µM | 93.76 ± 0.39 µM | 27.71 ± 0.14 µM | 22.8 ± 0.34 µM | > 100 µM |  |  |  |  |  | 
17 | 174.8 to 175.5 °C | COc1ccc(C=NNC(=O)COC(=O)C2(C)CCCC3(C)c4ccc(C(C)C)cc4CCC23)cc1 (centres unmarked) [4p, N’-(4-Methoxybenzylidene)-2-(dehydroabietyloxy)acetohydrazide] | 56.98 ± 0.08 µM | 48.59 ± 0.09 µM | 34.33 ± 0.32 µM | 55.29 ± 0.44 µM | 91.8 ± 1.57 µM |  |  |  |  |  | 
18 | 181.9 to 184.5 °C | CC(C)c1ccc2c(c1)CCC1C(C)(C(=O)OCC(=O)NN=Cc3ccc(F)cc3F)CCCC21C (centres unmarked) [4u, N’-(2,4-Difluorobenzylidene)-2-(dehydroabietyloxy)acetohydrazide] | 32.83 ± 0.16 µM | 25.4 ± 0.54 µM | 5.86 ± 0.09 µM | 18.6 ± 0.37 µM | 55.8 ± 1.38 µM |  |  |  |  |  | 
19 | 190.3 to 191.8 °C | COc1ccccc1C=NNC(=O)COC(=O)C1(C)CCCC2(C)c3ccc(C(C)C)cc3CCC12 (centres unmarked) [4n] | 26.08 ± 0.05 µM | 50.1 ± 0.74 µM | 45.13 ± 0.09 µM | 23.8 ± 0.51 µM | 70.4 ± 2.23 µM |  |  |  |  |  | 
20 | 136.7 to 137.9 °C | COc1cccc(C=NNC(=O)COC(=O)C2(C)CCCC3(C)c4ccc(C(C)C)cc4CCC23)c1 (centres unmarked) [4o] | 86.46 ± 0.13 µM | 51.3 ± 0.63 µM | 32.06 ± 0.21 µM | 14.8 ± 0.38 µM | > 100 µM |  |  |  |  |  | 
21 | 188.1 to 188.6 °C | CC(C)c1ccc2c(c1)CCC1C(C)(C(=O)OCC(=O)NN=Cc3ccc(Br)cc3)CCCC21C (centres unmarked) [4m] | 89.66 ± 0.27 µM | 9.94 ± 0.59 µM | 12.8 ± 0.15 µM | 23.1 ± 0.33 µM | > 100 µM |  |  |  |  |  | 
22 | 166 to 167.3 °C | CC(C)c1ccc2c(c1)CCC1C(C)(C(=O)OCC(=O)NN=Cc3cccc(F)c3)CCCC21C (centres unmarked) [4r] | 51 ± 0.94 µM | 31.6 ± 0.47 µM | 12.8 ± 0.13 µM | 25.9 ± 0.53 µM | 68.6 ± 1.25 µM |  |  |  |  |  | 
23 | 169.2 to 170.5 °C | CC(C)c1ccc2c(c1)CCC1C(C)(C(=O)OCC(=O)NN=Cc3ccc(F)cc3)CCCC21C (centres unmarked) [4s] | 49.81 ± 0.49 µM | 90.08 ± 0.33 µM | 28.79 ± 0.24 µM | 25.22 ± 0.22 µM | > 100 µM |  |  |  |  |  | 
24 | 150.2 to 153.5 °C | CC(C)c1ccc2c(c1)CCC1C(C)(C(=O)OCC(=O)NN=Cc3cccc(F)c3F)CCCC21C (centres unmarked) [4t] | 33.3 ± 0.56 µM | 22.89 ± 0.04 µM | 11.1 ± 0.15 µM | 18.8 ± 0.59 µM | 72 ± 1.66 µM |  |  |  |  |  | 
25 | 107.3 to 110 °C | CC(C)c1ccc2c(c1)CCC1C(C)(C(=O)OCC(=O)NN=Cc3c(F)cccc3F)CCCC21C (centres unmarked) [4v] | 26.8 ± 0.46 µM | 16.9 ± 0.18 µM | 15 ± 0.21 µM | 20.5 ± 0.53 µM | 44.6 ± 2.02 µM |  |  |  |  |  | 
26 | 182.6 to 186.6 °C | CC(C)c1ccc2c(c1)CCC1C(C)(C(=O)OCC(=O)NN=Cc3cc(F)cc(F)c3)CCCC21C (centres unmarked) [4w] | 15.4 ± 0.21 µM | 12.07 ± 0.07 µM | 2.21 ± 0.04 µM | 14.5 ± 0.22 µM | 66.1 ± 1.84 µM |  |  |  |  |  | 
27 | 178.3 to 179.8 °C | CC(C)c1ccc2c(c1)CCC1C(C)(C(=O)OCC(=O)NN=Cc3cccc(Br)c3)CCCC21C (centres unmarked) [4l] | 11.45 ± 0.11 µM | 35.1 ± 0.96 µM | 25.14 ± 0.1 µM | 19.9 ± 0.27 µM | 86.4 ± 3.12 µM |  |  |  |  |  | 
